Values quoted from earlier work as cited in patent publication US20050074443A1, “Methods of attenuating autoimmune disease and compositions useful therefor” (priority 2003, published 2005).

Test system: experimental autoimmune encephalomyelitis
Conditions: exogenous administration, mouse model

**Q.** With `C=C1/C(=C\C=C2/CCC[C@]3(C)[C@@H]([C@H](C)CCCC(C)(C)O)CC[C@@H]23)C[C@@H](O)C[C@@H]1O` [1,25-dihydroxyvitamin D3] as the molecule, how does the “effect on experimental autoimmune encephalomyelitis” value read?
**A.** can prevent experimental autoimmune encephalomyelitis
